US12398087B2, “Methods of making bempedoic acid and compositions of the same” (Esperion Therapeutics, Inc., priority 2019, dated 2025)

Experiments:
[1] = Water sorption by dynamic vapor sorption; assay type: physicochemical; settings: crystalline form; relative humidity of 80%, temperature of 25° C.
Experimental: The crystalline form of the compound of formula (V) may also be characterized according to its water sorption properties. […] In certain embodiments, the crystalline form of the compound of formula (V) has a water sorption isotherm, when measured at 25° C., substantially the same as shown in FIG. 6.

[2] = Thermogravimetric analysis (TGA); assay type: physicochemical; settings: crystalline form; heated at 10° C./minute from ~25° C. to about 315° C.
Experimental: Thermogravimetric analysis (TGA) data for the crystalline form of the compound of formula (V) were collected using a TA Discovery 550 TGA instrument. The TGA instrument was calibrated using a nickel reference standard. Samples of the crystalline form of the compound of formula (V) were placed in open platinum sample pans and heated at a rate of 10° C./minute from about ambient temperature (˜ 25° C.) to about 315° C.

For CC(C)(CCCCCC(O)CCCCCC(C)(C)C(=O)O)C(=O)O [compound of formula (V), 8-hydroxy-2,2,14,14-tetramethylpentadecanedioic acid], the “change in mass, as determined by dynamic vapor sorption” value [1] was “about 0.03%” and the “weight loss in TGA curve” value [2] was “negligible weight loss prior to decomposition occurring”.
